Laboratory results from patent US9814720B2, “Compositions and methods of inhibiting IL-17 expression of neutrophils” (priority 2014, dated 2017).

How the values were obtained:
p-STAT3 [1] = assay: Western blot of total cell lysate of IL-6/23-stimulated human neutrophils; format: cell-based; conditions: IL-6/23 1 h, FIG. 5A
Procedure: Neutrophils were isolated from peripheral blood of healthy donors. Peripheral blood was incubated in 3% Dextran, and neutrophils isolated by Ficoll gradient centrifugation (Fisher Scientific), with neutrophil purity determined by staining with Wright-Giemsa.
Murine or human neutrophils were suspended at a density of 10^6 cells/ml and incubated with […] of recombinant mouse or human IL-6 and 2 μg/ml IL-23 in RPMI, and the cells were maintained for 1-3 h at 37° C. in 5% CO2. Various inhibitors were used for assessing STAT3 activation. For STAT3, neutrophils were treated with either the STAT3-SH2 inhibitor, Stattic (20 μM) obtained from Tocris, or the JAK-1, 2 inhibitor, INC424, (aka Ruxolitinib; 20 μM (Selleck BioChem)). For the determination of RORγt-dependent signaling, SR1001 (20 μM; Sigma) was used, which inhibits RORγt binding to the IL-17 promoter site. All inhibitors were added to neutrophils 2 h prior to recombinant IL-6 and IL-23 stimulation.
Neutrophils collected from primed or naïve C57BL/6 mice or unstimulated murine or human neutrophils were incubated with recombinant IL-6 and IL-23 for 60 min. After this time, cells were washed in PBS and lysed in ice-cold 1× lysis buffer (Cell Signaling Technology, Beverly, Mass.). Total protein was quantified using the BCA method, denatured with 2× Laemmli buffer (Sigma) and heated to 95° C. for 5 minutes. Nuclear extracts of the cells were prepared with the Pierce nuclear extract kit per the manufacturer's directions (Pierce). Ten μg of total protein was analyzed on a 12% SDS polyacrylamide gel, and transferred to nitrocellulose. Blots were probed with the following primary antibodies: Total STAT3 (R&D), p-STAT3 (R&D), RORγt (eBioscience), TATA box binding protein (TBP (Abcam)), and β-actin (Cell Signaling Technology). HRP-conjugated secondary antibodies were used (Santa Cruz Biotechnologies), and western blots developed with Supersignal West Femto Maximum Sensitivity Substrate (Pierce).

[2] = system: human peripheral blood neutrophils; assay: ROS production (CFDA) by human peripheral blood neutrophils incubated with Aspergillus hyphae; format: cell-based; conditions: IL-6/23-stimulated, inhibitor 20 μM, FIG. 6E
Procedure: (§1) Murine and human neutrophils were incubated with p-STAT3 (20 μM Stattic or 20 μM INC424) or RORγt inhibitors (20 μM SR1001) for 2 h. Then the cells were stimulated with […] of rIL-6 and 2 μg/ml of rIL-23 for 3 h, washed, and 2×10^5 bone marrow-derived murine neutrophils or 10^5 human peripheral blood neutrophils, with or without recombinant IL-17A, were added to each well with growing hyphae. RPMI media was used as positive control (unimpaired growth), and PBS was used as a negative control (no growth (data not shown)). After 16 h the wells were washed with PBS and the dsRed fungal mass was quantified in a 96-well fluorometer at 550/600 nm excitation/emission filter (Synergy HT, Biotek).
In vitro ROS production measured by CFDA was previously described. Briefly, 100 μg/100 μl of A. fumigatus hyphal extract (AspHE) were incubated with 2×10^5 murine or human neutrophils. Neutrophils were treated for 1 h with 1 μM Carboxyfluorescein diacetate (H2CFDA (Sigma)), which will fluoresce following ROS oxidation. Neutrophils were collected and analyzed by flow cytometry. H2CFDA pulsed neutrophils that had not been incubated with AspHE were used to set the ROS histogram gate. The average mean intensity was calculated by Accuri flow software and graphed in Prism.

A. fumigatus hyphae = assay: In vitro fungal killing assay (hyphal coincubation) with human neutrophils; format: cell-based, Aspergillus fumigatus; conditions: IL-6/23-stimulated, inhibitor 20 μM, FIG. 6F
From the text: Aspergillus strains—For cornea infections and in vitro fungal killing assays, an RFP expressing strain of A. fumigatus (Af-dsRed) was used. This strain is gpdA promoter driven to constitutively express monomeric dsRed. For subcutaneous “priming” injections, heat-killed, swollen conidia Aspergillus fumigatus strain Af-BP was used. For the Aspergillus hyphal extract used in ROS assay, A. fumigatus strain Af-BP hyphae were pulverized in liquid nitrogen, filtered through a 30 μm pre-separation filter (Miltenyi Biotec) and protein measured by the BCA method (Pierce). Aspergillus hyphal extracts (AspHE) were stored at −20° C. and used at a final concentration of 1 mg/ml.
A hyphal coincubation assay was used to study the ability of murine and human neutrophils to inhibit A. fumigatus hyphal growth as described. Briefly, 12,500 A. fumigatus dsRed expressing conidia (strain Af-dsRed) per 200 μl Sabouraud dextrose media were added to wells of black-walled 96 well plates with an optically clear bottom (CoStar 3720). After 6 h, the conidia had germinated and the hyphae became adherent to the wells, at which time the medium was removed.
as §1

p-STAT3 [3] = assay: STAT3 phosphorylation in IL-6/23-stimulated murine bone marrow neutrophils (flow cytometry); format: cell-based, C57BL/6 mice; conditions: inhibitor 20 μM, 1 h IL-6+IL-23, FIG. 4C
From the text: Total bone marrow-derived cells were isolated from mouse femurs and tibias by flushing with RPMI and an 18-gauge needle. Erythrocytes were lysed with 1× lysis buffer (eBioscience), and bone marrow cells were separated on a Percoll (Fisher) gradient by density centrifugation (52%, 69%, and 78%). Cells at the 69-78% interface were harvested, and neutrophil purity (>98%) confirmed by flow cytometry and Wright-Giemsa staining. Murine or human neutrophils were suspended at a density of 10^6 cells/ml and incubated with […] of recombinant mouse or human IL-6 and 2 μg/ml IL-23 in RPMI, and the cells were maintained for 1-3 h at 37° C. in 5% CO2. Various inhibitors were used for assessing STAT3 activation. […] For the determination of RORγt-dependent signaling, SR1001 (20 μM; Sigma) was used, which inhibits RORγt binding to the IL-17 promoter site. All inhibitors were added to neutrophils 2 h prior to recombinant IL-6 and IL-23 stimulation. Corneas were dissected and incubated for 1 h at 37° C. in collaganese (80 U/ml) (C0130; Sigma-Aldrich), and washed in FACS buffer (PBS+1% FBS+0.5% Sodium azide). Ten corneas were pooled and analyzed by intracellular flow cytometry. Conversely, bone marrow cells or neutrophils were collected as described above and washed in FACS buffer. […] Cells were analyzed using a C6 Accuri flow cytometer (BD). […]

SMILES: O=[N+]([O-])c1ccc2c(c1)S(=O)(=O)C=C2 [Stattic]
- RORγt expression (western blot) (p-STAT3 [1]): not altered
- total STAT3 expression (western blot) (p-STAT3 [1]): not altered
- p-STAT3 (western blot) (p-STAT3 [1]; inhibitor 20 μM): inhibited
- ROS production ([2]; plus rhIL-17A): increased ROS
- ROS production ([2]; without rhIL-17A): no increase in ROS
- fluorescent fungal mass (A. fumigatus hyphae; plus rhIL-17A): decreased fungal mass
- fluorescent fungal mass (A. fumigatus hyphae; without rhIL-17A): no increase in ROS (FIG. 6E) or decrease in fluorescent fungal mass
- p-STAT3 in IL-6/23 stimulated neutrophils (p-STAT3 [3]): completely inhibited
